Patent publication US12459921B2, “Isoindoline compound, preparation method, pharmaceutical composition and use thereof” (SHANGHAI INSTITUTE OF MATERIA MEDICA, CHINESE ACADEMY OF …, priority 2018, dated 2025)

tested on: MM.1S cells; assay: Inhibitory effect on the proliferation of MM.1S, MTS cell viability test; assay type: cell-based; details: Homo sapiens, MM1.S, 168 h, multiple myeloma MM.1S cells, 7 days incubation, read-out: Tumor cell inhibitory activity
Method: Method of tumor cell proliferation inhibition test: the inventors tested all the example compounds on hematologic tumor cells, multiple myeloma MMTs cell line and acute leukemia cell MV-4-11 cell line of some examples. The activity test method and results are as follows.
1. The Compound's Inhibitory Effect on the Proliferation of MM.1S, MTS Cell Viability Test:
MM.1S cells were cultured and collected with 1640 plus 10% fetal bovine serum. The cell concentration was diluted according to 7 days, and 180 ul cell suspension was added to each well of the 96-well cell plate to 20,000 cells. 20 ul of DMSO with a final concentration of 0.2% was added to the control wells. The compound was 5-fold diluted—from the 10 mM stock solution, and 20 ul was also added to each compound cell well (the final concentration of DMSO was 0.2%). The cells were placed in a 37° C., 5% CO2 incubator to incubate for 7 days. After the reaction solution was prepared according to the MTS kit (Promega, G5430), 20 μL was added to each well and incubated in a 37° C., 5% CO2 incubator for 3-4 h. Absorbance value at 490 nm was read with a microtiter plate, and 690 nm absorbance value was used as the background value. OD490-OD690 was used as the final initial data. The formula for calculating the inhibition rate of the compound is: inhibition rate=(ODDMSO-ODcompound)/(ODDMSO-Oblank)×100%. The compound's proliferation inhibition IC50 was fitted by Graph Pad Prism 5.0. The experiment was repeated three times, and the average and standard deviation was calculated according to the three parallel experiments.
Cell viability test results: **** represents cell viability IC50>20 μM, […] represents cell viability 1 μM<IC50<20 μM, ** represents cell viability 100 nM<IC50<1 μM, * represents cell viability IC50<100 nM.

`O=C1CCC(N2Cc3c(CCCCCCN4CCC5(CC4)OCc4ccc(Cl)cc45)cccc3C2=O)C(=O)N1` (centres unmarked) [Example 120, 3-(4-(6-(6-chloro-3H-spiro[isobenzofuran-1,4′-piperidine]-1′-)hexyl)-1-oxoisoindoline-2-)piperidine-2,6-dione] and `O=C1CCC(N2Cc3c(OCCCCC(=O)N4CCC5(CC4)OCc4ccc(Cl)cc45)cccc3C2=O)C(=O)N1` (centres unmarked) [Example 152, 3-(4-((5-(6-chloro-3H-spiro[isobenzofuran-1,4′-piperidine]-1′-)-5-oxopentyl)oxy)-1-oxoisoindoline-2-)piperidine-2,6-dione] cannot be ordered by IC50: < 100 nM for the first, < 100 nM for the second.

`O=C1CCC(N2Cc3c(CCC[C@H](NC(=O)C4CC4)C(=O)NCc4ccccc4)cccc3C2=O)C(=O)N1` (stereo partly drawn) [Example 165, N-((2S)-1-(benzylamino)-5-(2-(2,6-dioxopiperidine-3-)-1-oxoisoindoline-4-)-1-oxopentyl-2-)cyclopropylformamide] and `CCC(=O)N[C@@H](CCCc1cccc2c1CN(C1CCC(=O)NC1=O)C2=O)C(=O)NCc1ccccc1` (stereo partly drawn) [Example 206, (2S)—N-benzyl-5-(2-(2,6-dioxopiperidine-3-)-1-oxoisoindoline-4-)-2-propionamidopentaneamide] cannot be ordered by IC50: < 100 nM for the first, < 100 nM for the second.

First: CC(=O)N[C@@H](CCCc1cccc2c1CN(C1CCC(=O)NC1=O)C2=O)C(=O)NC(C)(C)c1ccccc1 (stereo partly drawn) [Example 188, (2S)-2-acetylamino-5-(2-(2,6-dioxopiperidine-3-)-1-oxoisoindoline-4-)-N-(2-phenylpropyl-2-)pentanamide]
Second: CC(=O)N[C@@H](CCCc1cccc2c1CN(C1CCC(=O)NC1=O)C2=O)C(=O)N[C@H](C)c1ccccc1 (stereo partly drawn) [Example 169, (2S)-2-acetylamino-5-(2-(2,6-dioxopiperidine-3-)-1-oxoisoindoline-4-)-N—((R)-1-phenethyl)pentanoamide]
The IC50 of the first is higher: 100 to 1000 nM for the first, < 100 nM for the second. The second is the more potent here.

First: O=C1CCC(N2Cc3c(CCCCN4CCN(c5ccc(F)cc5F)CC4)cccc3C2=O)C(=O)N1 (centres unmarked) [Example 43, 3-(4-(4-(4-(2,4-difluorophenyl)piperazine-1-)butyl)-1-oxoisoindoline-2-)piperidine-2,6-dione]
Second: O=C1CCC(N2Cc3c(CCCCCN4CCC5(C=Cc6ccccc65)CC4)cccc3C2=O)C(=O)N1 (centres unmarked) [Example 141, 3-(1-oxo-4-(5-(spiro[indene-1,4′-piperidine]-1′-)pentyl)isoindoline-2-)piperidine-2,6-dione]
The IC50 of the first is lower: < 100 nM for the first, 100 to 1000 nM for the second. The first is the more potent here.

`N#CC1(c2ccc(Cl)cc2F)CCN(CCCOc2cccc3c2CN(C2CCC(=O)NC2=O)C3=O)CC1` (centres unmarked) [Example 72, 4-(4-chloro-2-fluorophenyl)-1-(3-((2-(2,6-dioxopiperidine-3-)-1-oxoisoindoline-4-)oxy)propyl)piperidine-4-carbonitrile] and `N#CC1(c2cccc(Cl)c2)CCN(CCCCCOc2cccc3c2CN(C2CCC(=O)NC2=O)C3=O)CC1` (centres unmarked) [Example 79, 4-(3-chlorophenyl)-1-(5-((2-(2,6-dioxopiperidine-3-)-1-oxoisoindoline-4-)oxy)pentyl)piperidine-4-carbonitrile] cannot be ordered by IC50: < 100 nM for the first, < 100 nM for the second.

Compared with `CC(=O)N[C@@H](CCCc1cccc2c1CN(C1CCC(=O)NC1=O)C2=O)C(=O)Nc1ccccc1-c1ccccn1` (stereo partly drawn) [Example 194, (2S)-2-acetylamino-5-(2-(2,6-dioxopiperidine-3-)-1-oxoisoindoline-4-)-N-(2-(pyridine-2-)phenyl)pentanamide], `N[C@@H](CCCc1cccc2c1CN(C1CCC(=O)NC1=O)C2=O)C(=O)Nc1ccccc1-c1cccnc1` (stereo partly drawn) [Example 172, (2S)-2-amino-5-(2-(2,6-dioxopiperidine-3-)-1-oxoisoindoline-4-)-N-(2-(pyridine-3-)phenyl)pentaneamide] is higher in IC50: 100 to 1000 nM for the first, > 20000 nM for the second.

First: CC(=O)N[C@@H](CCCc1cccc2c1CN(C1CCC(=O)NC1=O)C2=O)C(=O)NCc1ccc(OCCN(C)C)cc1 (some centres unmarked) [Example 190]
Second: CC(=O)N[C@@H](CCCc1cccc2c1CN(C1CCC(=O)NC1=O)C2=O)c1nc2cccc(Br)c2[nH]1 (stereo partly drawn) [Example 197, N-((1S)-1-(7-bromo-1H-benzo[d]imidazole-2-)-4-(2-(2,6-dioxopiperidine-3-)-1-oxoisoindoline-4-)butyl)acetamide]
The IC50 of the first is higher: 1000 to 20000 nM for the first, 100 to 1000 nM for the second. The second is the more potent here.
